Experimental data published in ChEMBL document CHEMBL1201862, “PubChem BioAssay data set” (2004).
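Interpolation was linear, between the two tested concentrations surrounding the appropriate level; five concentrations were tested over 48 hours in 96-well plates. GI50 is the concentration that inhibits growth by half.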 Active and inactive are the calls of the source. Rule as the data show it: active = GI50 up to about 1.1 µM and inactive = higher.

Legend:
Assay in all cases: growth of human tumour cells (NCI), 48 h
UACC-62 = system: UACC-62
NCI-H23 = system: NCI-H23
IGROV-1 = system: IGROV-1
MDA-N = system: MDA-N
SF-295 = system: SF-295
MCF7 = system: MCF7
HCT-15 = system: HCT-15
NCI-H460 = system: NCI-H460
786-0 = system: 786-0
COLO 205 = system: COLO 205
U-251 = system: U-251
OVCAR-3 = system: OVCAR-3
MDA-MB-231 = system: MDA-MB-231
SK-MEL-5 = system: SK-MEL-5
RXF 393 = system: RXF 393
NCI-H226 = system: NCI-H226
SK-OV-3 = system: SK-OV-3
DU-145 = system: DU-145
CCRF-CEM = system: CCRF-CEM

Structure (SMILES)	GI50 (UACC-62)	GI50 (NCI-H23)	GI50 (IGROV-1)	GI50 (MDA-N)	GI50 (SF-295)	GI50 (MCF7)	GI50 (HCT-15) [µM]	GI50 (NCI-H460)	GI50 (786-0)	GI50 (COLO 205)	GI50 (U-251)	GI50 (OVCAR-3)	GI50 (MDA-MB-231)	GI50 (SK-MEL-5)	GI50 (RXF 393)	GI50 (NCI-H226)	GI50 (SK-OV-3)	GI50 (DU-145)	GI50 (CCRF-CEM)
N[C@H](CCC(=O)NCP(=O)(O)O)C(=O)O	> 100 µM (inactive)	> 100 µM (inactive)	> 100 µM (inactive)	> 100 µM (inactive)	5.33 µM (inactive)	> 100 µM (inactive)	> 100	> 100 µM (inactive)	> 100 µM (inactive)	> 100 µM (inactive)	> 100 µM (inactive)	> 100 µM (inactive)	> 100 µM (inactive)	> 100 µM (inactive)					
COc1ccc2sc(-n3nc4ccccc4c3Nc3nc4ccc(OC)cc4s3)nc2c1	2.95 µM (inactive)	1.73 µM (inactive)	2.02 µM (inactive)		3.29 µM (inactive)	6.47 µM (inactive)	10.5	2.22 µM (inactive)	1.64 µM (inactive)	14.9 µM (inactive)	2.76 µM (inactive)	1.79 µM (inactive)	2.07 µM (inactive)	2.26 µM (inactive)	11 µM (inactive)	2.9 µM (inactive)	1.94 µM (inactive)	2.98 µM (inactive)	96.4 µM (inactive)
Nc1ncc(Cc2nn3c(COc4ccc(Cl)cc4)nnc3s2)s1	> 100 µM (inactive)	> 100 µM (inactive)	> 100 µM (inactive)		> 100 µM (inactive)	> 100 µM (inactive)	0.748	> 100 µM (inactive)	> 100 µM (inactive)	> 100 µM (inactive)		> 100 µM (inactive)	> 100 µM (inactive)	> 100 µM (inactive)	> 100 µM (inactive)	> 100 µM (inactive)	> 100 µM (inactive)	> 100 µM (inactive)	> 100 µM (inactive)
CC(C)(C)N1CSC(=S)N(Cc2ccco2)C1	7.05 µM (inactive)	2.37 µM (inactive)	2.55 µM (inactive)	2.85 µM (inactive)	15.8 µM (inactive)	0.52 µM (active)	2.56	5.89 µM (inactive)	1.63 µM (inactive)	3.65 µM (inactive)	3.72 µM (inactive)	1.94 µM (inactive)		3.61 µM (inactive)	5.87 µM (inactive)	20.3 µM (inactive)	5.75 µM (inactive)	3.85 µM (inactive)	1.08 µM (active)
O=C1CC(c2ccc(O)cc2)C2(O1)C(=O)OC(C(O)CO)C2O (centres undefined)	> 100 µM (inactive)	> 100 µM (inactive)	> 100 µM (inactive)		> 100 µM (inactive)	> 100 µM (inactive)	> 100		> 100 µM (inactive)	> 100 µM (inactive)	> 100 µM (inactive)	> 100 µM (inactive)	> 100 µM (inactive)	> 100 µM (inactive)	> 100 µM (inactive)	> 100 µM (inactive)	> 100 µM (inactive)	> 100 µM (inactive)	> 100 µM (inactive)
CC(C)CCC[C@@H](C)[C@H]1CC[C@H]2[C@@H]3CC=C4C[C@@H](OC(=O)c5cccc6c(=O)c7ccccc7[nH]c56)CC[C@]4(C)[C@H]3CC[C@]12C	> 75 µM (inactive)	> 75 µM (inactive)	> 75 µM (inactive)	1.56 µM (inactive)	> 75 µM (inactive)	> 75 µM (inactive)	> 75		> 75 µM (inactive)	> 75 µM (inactive)	> 75 µM (inactive)	> 75 µM (inactive)	3.91 µM (inactive)	> 75 µM (inactive)	> 75 µM (inactive)	> 75 µM (inactive)	> 75 µM (inactive)		
CC[n+]1[b-](C(C)(C)C)n(/N=C/C(C)(C)C)[b-](C(C)(C)C)[n+]1CC	> 100 µM (inactive)	> 100 µM (inactive)	> 100 µM (inactive)	> 100 µM (inactive)	> 100 µM (inactive)	> 100 µM (inactive)	> 100	> 100 µM (inactive)	> 100 µM (inactive)	> 100 µM (inactive)	> 100 µM (inactive)	> 100 µM (inactive)	> 100 µM (inactive)	> 100 µM (inactive)	> 100 µM (inactive)	> 100 µM (inactive)			66.1 µM (inactive)
CCSCCCSCCSCC	> 100 µM (inactive)	> 100 µM (inactive)	> 100 µM (inactive)	> 100 µM (inactive)	> 100 µM (inactive)	> 100 µM (inactive)	> 100	> 100 µM (inactive)	> 100 µM (inactive)	> 100 µM (inactive)	> 100 µM (inactive)	> 100 µM (inactive)	> 100 µM (inactive)	> 100 µM (inactive)			> 100 µM (inactive)	> 100 µM (inactive)	> 100 µM (inactive)
